Patent US9987368B2, “Pharmaceutical composition comprising polypeptide” (SANTEN PHARMACEUTICAL CO., LTD., priority 2015, dated 2018)

What was measured:
[1] = Dissolution performance evaluation test; type: physicochemical; conditions: for Property: visually checked
Experimental: Drug dissolving abilities of various solutions were examined.
The compound represented by the above formula (2) (2-[[[2-[(hydroxyacetyl)amino]-4-pyridinyl]methyl]thio]-N-[4-(trifluoromethoxy)phenyl]-3-pyridinecarboxamide, hereinafter also referred to as the drug A; prepared in accordance with the method described in the specification of US Patent Application Publication No. 2007/0149574) was added to each solvent (total 1 mL) out of various solvents of DMSO (GAYLORD), PEG 400 (Nacalai Tesque), and water, and was stirred at room temperature (25° C.) overnight (for 8 hours). Then, the properties of the resultant solvents were visually checked.

[2] = tested on: VEGF-induced HUVEC proliferation; conditions: US 2007/0149574; cited from earlier work
cancer models in mice = conditions: US 2007/0149574; cited from earlier work
[3] = tested on: adjuvant arthritis models in rats; conditions: US 2007/0149574; cited from earlier work
[4] = tested on: choroidal neovascularization models in rats; conditions: US 2007/0149574; cited from earlier work
[5] = Depot formation evaluation test (1): gelatinizers in DMSO/water; type: physicochemical; conditions: solution of DMSO/water at the volume ratio (9:1)
Experimental: Depot (deposited mass) formations of various kinds of gelatinizers were examined.
Compositions 1 to 6 were prepared by blending each of various kinds of gelatinizers to a solvent of DMSO/water (volume ratio of 9:1) such that the gelatinizer is contained at 0.1% (w/v) (0.1% by mass of the gelatinizer is contained per 100 mL of the solution of DMSO/water). Then, calcium chloride dihydrate and magnesium chloride hexahydrate were dissolved in Dulbecco's phosphate buffered saline (−) (Product No. D-5652 manufactured by Sigma-Aldrich) to prepare Dulbecco's phosphate buffered saline (+). 0.005 mL of each of the compositions was added to 1 mL of the Dulbecco's phosphate buffered saline (+), and the formation of a depot was visually checked. The formation of a depot was evaluated in such a way that the depot is determined as formed if a mass formed of the composition deposited is observed.

[6] = Depot formation evaluation test (2): solvents of the polypeptide A; type: physicochemical
Experimental: Solvents of the polypeptide A were examined.
Compositions 2 to 6 and Comparative Examples 6 and 7 were prepared by adding 0.01 mL of an aqueous solution of the polypeptide A at 1% (w/v) (containing 1% by mass of the polypeptide A per 100 mL of water) to 0.09 mL of each of various solvents, followed by stirring. 0.005 mL of each of the compositions was administered to 1 mL of the Dulbecco's phosphate buffered saline (+), and the formation of a depot was visually checked.

| Molecule | Property ([1]; Test 1: Drug A 20 mg in DMSO 0.9 mL + water 0.1 mL, stirred at room temperature (25° C.) overnight) | Property ([1]; Test 2: Drug A 60 mg in DMSO 0.9 mL + water 0.1 mL, stirred at 25° C. overnight) | Property ([1]; Test 3: Drug A 60 mg in water 1 mL, stirred at 25° C. overnight) | Property ([1]; Test 4: Drug A 25 mg in PEG 400 1 mL, stirred at 25° C. overnight) | Property ([1]; Test 5: Drug A 25 mg in PEG 400 0.9 mL + water 0.1 mL, stirred at 25° C. overnight) | Property ([1]; Test 6: Drug A 25 mg in PEG 400 0.8 mL + water 0.2 mL, stirred at 25° C. overnight) | Property ([1]; Test 7: Drug A 25 mg in water 1 mL, stirred at 25° C. overnight) | Dissolution of the drug in solution containing DMSO or PEG 400 ([1]; solution containing DMSO or PEG 400) | Dissolution of the drug in water ([1]; water) | cell proliferation inhibitory action [2] | tumor growth inhibitory action (cancer models in mice) | paw edema inhibitory action [3] | choroidal neovascularization inhibitory action [4] | Depot formation [5] | Depot formation ([6]; DMSO, PEG 200, PEG 400, glycofurol and N-methylpyrrolidone used as the solvents) | Depot formation ([6]; ethanol and N,N-dimethylacetamide used as the solvents) |
| --- | --- | --- | --- | --- | --- | --- | --- | --- | --- | --- | --- | --- | --- | --- | --- | --- |
| O=C(CO)Nc1cc(CSc2ncccc2C(=O)Nc2ccc(OC(F)(F)F)cc2)ccn1 [Drug A, 2-[[[2-[(hydroxyacetyl)amino]-4-pyridinyl]methyl]thio]-N-[4-(trifluoromethoxy)phenyl]-3-pyridinecarboxamide] | Solution | Solution | Suspension | Solution | Solution | Solution | Suspension | can dissolve the drug | cannot be dissolved in water | demonstrated a cell proliferation inhibitory action | demonstrated a tumor growth inhibitory action | demonstrated a paw edema inhibitory action | demonstrated a choroidal neovascularization inhibitory action |  |  |  |
| Ac-(Arg-Ala-Asp-Ala)4-NH2 [polypeptide A] |  |  |  |  |  |  |  |  |  |  |  |  |  | formed a depot | formed a depot | did not form a depot |
